Series [1] deals with human liver cancer cell line HepG2. The series is described as follows: Anticancer effect test in liver cancer animal model using human liver cancer cell line (Example 2). Format: in vivo, nude mouse. The conditions noted are these: for relative size of tumor isolated 21 days after administration: compound 100 mg/kg P.O., Cisplatin 5 mg/kg IV, twice a week for 3 weeks, FIG. 2. The protocol: (§1) The human liver cancer cell line HepG2 was grown in Eagle's Minimum Essential Medium (EMEM) medium supplemented with 10% Fetal bovine serum (FBS) and 1% Antibiotic-Antimycotic. For liver cancer animal model production, stabilized cells were suspended in a 1:1 mixture (100 μL) of EMEM serum free media: Matrigel at a density of 5×10^6 cells/animal and then the suspension was transplanted subcutaneously to a flank of a nude mouse (5 weeks old, male). We have waited for the tumor formation for 3 weeks. When the tumor volume reached 200 mm^3, the body weight and the tumor size were measured and then the mice were randomly grouped. The mice were divided into 3 groups. Saline alone was administered intravenously to each group (Saline administered group (n=6, IV)). Cisplatin adjusted to pH 4 using NaCl aqueous solution, HCl aqueous solution, or NaOH aqueous solution was administered intravenously thereto (Cisplatin administered group (n=6, IV)). The compound according to the present disclosure (compound of Chemical Formula 1-1) dissolved in saline was forcibly administered orally thereto (administered group according to the present disclosure (n=6, P.O.)). The administration intervals and frequencies of administration to the groups were equal to each other. The administration was performed once a day and twice a week for 3 weeks. The dosage of Cisplatin (intravenous administration) was 5 mg/kg. The composition was orally administered at 100 mg/kg to the administered group according to the present disclosure.
The mice were anesthetized immediately prior to the administration, and then the body weight thereof was measured to observe the change in the body weight. The change in the tumor size over time was observed based on a following equation.
Average tumor volume calculation equation: V (mean tumor volume)=(A×B×B)/2
(In the above equation, A denotes a length of a long side and B denotes a length of a short side).
Further, on 21 days after the administration, a start time of tumor necrosis in the saline group was designated as an end point of the experiment. All nude mice participating in the experiment were sacrificed. Only the tumor was isolated from the flank thereof, and the relative size of the tumor was photographed. In FIG. 2, grayish-white dots mean that all tumors have disappeared and an individual has a tumor which may not be distinguished.

A short description of series [2]: Comparative study of blood and histological toxicity (serum GOT/GPT activity, Sirius red staining of liver and kidney). Format: in vivo. The conditions noted are these: oral administration, end of Example 2 experiment; FIG. 3 and FIG. 4. The protocol:
Toxicity was analyzed based on activity assay of GOT and GPT. A specific experimental method is as follows: GOT and GPT activity in serum was measured using a reagent kit (Asan Pharmaceutical) prepared according to a method of Reitman-Frankel. At an end of the experiment, blood was collected from an abdominal vena cava of the mice to which the compound was administered, and serum was separated therefrom. When a substrate solution was added to the serum which in turn was heated for a certain period of time, oxalacetate and glutamic acid were generated from the substrate solution for GOT measurement (aspartate, a-ketoglutarate mixture) due to the action of serum GOT, while under GPT action, pyruvate and glutamic acid were generated from the substrate solution for GPT measurement (Alanine, a-ketoglutarate mixture). Then, […] was added thereto such that 2,4-dinitrophenylhydrazone of oxaloacetate or pyruvate was produced, and NaOH was added thereto to develop color, and then absorbance was measured (505 nm). The activity of GOT and GPT in serum was calculated from a standard calibration curve as prepared separately.
At the end of the experiment, the blood of nude mice participating in the experiment was perfused and livers and kidneys were obtained. The tissues were fixed in 4% paraformaldehyde. […]

The subject of series [3] is human liver cancer cell line HepG2. The series is described as follows: Comparison of survival rate in the liver cancer animal model (Example 4). Format: in vivo, nude mouse. The conditions noted are these: animal model test of Example 2; FIG. 5. The protocol: as §1, with “The composition was orally administered at 100 mg/kg to the administered group according to the present disclosure.” left out

The next series has as its system Human liver cancer cells. As to the kind of experiment: Comparative test of anticancer effect according to administration route change (Example 5). The conditions noted are these: 100 mg/kg P.O. vs 5 mg/kg I.V., twice a week for 4 weeks. Format: in vivo. The protocol:
Human liver cancer cells were suspended in a 1:1 mixture (100 μL) of EMEM serum free media: Matrigel at a density of 2×10^6 cells/animal and the suspension was transplanted subcutaneously into the flank of nude mice (5 weeks old, male). We have waited for the tumor formation for 4 weeks. When the tumor volume reached 100 mm^3, the body weight and the tumor size were measured and then the mice were randomly grouped. The mice were divided into 4 groups. Saline alone was administered intravenously to each group (Saline administered group (n=6, I.V.)). Cisplatin adjusted to pH 4 using NaCl aqueous solution, HCl aqueous solution, or NaOH aqueous solution was administered intravenously thereto (Cisplatin administered group (n=5, I.V.)). […] The mice were anesthetized immediately prior to administration, and the body weight was measured to observe the change in the body weight. The changes in the body weight and the tumor size for 4 weeks were measured in the same manner as in Example 1 above, and the results are shown in FIG. 6. In the same manner as in Example 2, the tumor was separated and the relative size of the tumor was measured, and the photographed tissue is shown in FIG. 7.

[4] abbreviates: 100 mg/kg P.O., once a day twice a week for 3 weeks, FIG. 1.

The results in this text go back to patent publication US12551468B2, “Pharmaceutical composition for oral administration, for treatment of liver cancer” (ETNOVA Therapeutics Corp., priority 2019, dated 2026).

Structures are written as SMILES.

On to `N.N.[Cl][Pt][Cl]` [Cisplatin, cisplatin, reference compound], for which the “relative size of tumor isolated 21 days after administration” value in series [1] is on record as “tumor cells remain”.

Take `NCC(N)C(=O)Nc1ccc(-c2nc3ccccc3s2)cc1` (centres unmarked) [Chemical Formula 1-1]: in series [1] (setting [4]), the “change in body weight for 3 weeks” value was “no decrease in the body weight” and the “change in tumor size for 3 weeks” value is recorded as “the tumor disappeared or the size thereof was significantly reduced”. In series [1], the “relative size of tumor isolated 21 days after administration” value was “tumors significantly decrease or completely disappear”. Further, in series [2], the “toxicity in the liver and kidneys (serum GOT and GPT activity, tissue histology)” value was “significantly lowered”. Besides, in series [3], the “survival over time after drug administration” value is listed as “the survival was higher”. Further, the “toxicity based on the change in body weight, oral compared to intravenous administration” value in the series on Human liver cancer cells (FIG. 6) is “the toxicity based on the change in body weight may be lowered”. Besides, the “anticancer effect (tumor size, isolated tumor at 28 days, survival), oral compared to intravenous administration” value in the series with Human liver cancer cells (FIGS. 6, 7, 8) is listed as “the anticancer effect may be significantly better”.
